Patent US8202865B2, “Oxadiazole derivatives” (Merck Serono SA, priority 2007, dated 2012)
Structures can show the parent of a compound that is named as a salt.

Target: T1, S1P1 (Homo sapiens, UniProt P21453)
T1 construct: expressed in transfected cells; host or cells: CHO cells (membranes)
Experiment: 35S-GTPγS binding, S1P1 membranes
Assay type: biochemical
Conditions: membranes from CHO cells expressing S1P1; 60 min 30° C.
Method: Receptor binding assay: Membranes were prepared from CHO cells expressing S1P1 or S1P3 for use in ligand and […] binding studies. Cells were suspended in 50 mM TRIS, pH 7.4, 2 mM EDTA, 250 mM Sucrose (buffer A) and 1× Complete protease inhibitor cocktail (Roche), and disrupted at 4° C. by N2 decompression using a cell disruption bomb (Parr Instrument). Following centrifugation at 1000 RPM for 10 min at 4° C., the supernatant was suspended in buffer A and centrifuged again at 19000 RPM for 60 min at 4° C. The pellet was then suspended in 10 mM HEPES, pH 7.4, 1 mM EDTA, 250 mM Sucrose (Buffer B), and 1× Complete EDTA-free protease inhibitor cocktail and homogenized using a potter. Membranes were flash frozen in liquid N2 and stored at −80° C. [33P]sphingosine 1-phosphate (3000 Ci/mmol; American Radiolabeled Chemicals, Inc.) was added to test compounds in DMSO. Membranes and WGA SPA beads (GE Healthcare) were added to give a final volume of 100 μl in 96-well plates with assay concentrations of 25 pM or 10 pM [33P]sphingosine 1-phosphate (respectively for S1P1 or S1P3), 50 mM HEPES, pH 7.5, 5 mM MgCl2, 100 mM NaCl, 0.4% fatty acid-free BSA, 1-5 μg/well of proteins and 100 μg/well of WGA SPA beads. Binding was performed for 60 min at RT on a shaker and bound radioactivity was measured on a PerkinElmer 1450 MicroBeta counter. Specific binding was calculated by subtracting remaining radioactivity in the presence of 1000-fold excess of unlabeled S1P. Binding data were analyzed using the GraphPad Prism program.
Measurements of ^35S-GTPγS Binding: Membranes (1 to 10 μg protein) prepared as described above, were incubated in 96-well Scintiplates (PerkinElmer) with test compounds diluted in DMSO, in 180 μl of 20 mM HEPES, pH 7.4, 10 mM MgCl2, 2 μg/well Saponin, 0.2% fatty acid free BSA (Assay buffer), 140 mM NaCl and 1.7 μM GDP. The assay was initiated with the addition of 20 μl of 1.5 nM [35S]-GTPγS (1100 Ci/mmol; GE Healthcare) in assay buffer. After 60 min incubation at 30° C. on a shaker, plates were centrifuged for 10 min at 2000 RPM. Supernatant was discarded and membrane bound radioactivity was measured on a PerkinElmer 1450 MicroBeta counter. Triplicate samples were averaged and expressed as % response relative to S1P activation in absence of compound (n=2).

T1 sequence (P21453 whole entry, species assumed): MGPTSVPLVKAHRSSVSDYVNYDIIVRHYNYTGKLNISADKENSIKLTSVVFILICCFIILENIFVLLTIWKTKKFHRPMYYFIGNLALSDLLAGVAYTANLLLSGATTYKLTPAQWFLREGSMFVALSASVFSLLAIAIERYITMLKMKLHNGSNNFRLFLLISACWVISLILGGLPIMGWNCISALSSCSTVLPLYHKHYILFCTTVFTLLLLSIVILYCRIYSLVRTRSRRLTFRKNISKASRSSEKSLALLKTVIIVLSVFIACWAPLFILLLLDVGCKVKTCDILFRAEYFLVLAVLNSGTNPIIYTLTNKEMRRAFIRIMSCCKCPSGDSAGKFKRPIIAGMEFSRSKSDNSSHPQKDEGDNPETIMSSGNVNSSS

| Structure (SMILES) | EC50 |
| --- | --- |
| COCc1cc(-c2nc(-c3ccc(OCCCC(=O)O)c(F)c3)no2)ccc1N1CCCCC1C (stereo not drawn) [Example 165, 4-(2-fluoro-4-{5-[3-(methoxymethyl)-4-(2-methylpiperidin-1-yl)phenyl]-1,2,4-oxadiazol-3-yl}phenoxy)butanoic acid] | 1.6 nM |
| COCc1cc(-c2nc(-c3cccc(C(N)=O)c3)no2)ccc1-c1ccccc1C [Example 182, 3-{5-[2-(methoxymethyl)-2′-methylbiphenyl-4-yl]-1,2,4-oxadiazol-3-yl}benzamide] | 11 nM |
| COCc1cc(-c2nc(-c3cccc(CNCCC(=O)O)c3)no2)ccc1-c1ccccc1C [Example 155, N-(3-{5-[2-(methoxymethyl)-2′-methylbiphenyl-4-yl]-1,2,4-oxadiazol-3-yl}benzyl)-beta-alanine, Hydrochloride salt] | 0.4 nM |
| COCc1cc(-c2nc(-c3ccc(C(=O)N4CC(F)(F)C4)c(F)c3)no2)ccc1-c1ccccc1C [Example 175, 3-{4-[(3,3-difluoroazetidin-1-yl)carbonyl]-3-fluorophenyl}-5-[2-(methoxymethyl)-2′-methylbiphenyl-4-yl]-1,2,4-oxadiazole] | 128 nM |
| COCc1cc(-c2nc(-c3ccc(C(=O)N(C)CC(=O)O)c(F)c3)no2)ccc1-c1ccccc1C [Example 125, N-(2-fluoro-4-{5-[2-(methoxymethyl)-2′-methylbiphenyl-4-yl]-1,2,4-oxadiazol-3-yl}benzoyl)-N-methylglycine] | 86 nM |
| Cc1ccccc1-c1ccc(-c2nc(-c3ccc(C(=O)O)c(F)c3)no2)cc1CN1CCCC1 [Example 76, 2-fluoro-4-{5-[2′-methyl-2-(pyrrolidin-1-ylmethyl)biphenyl-4-yl]-1,2,4-oxadiazol-3-yl}benzoic acid, Hydrochloride salt] | 772 nM |
| COCc1ccccc1-c1ccc(-c2nc(-c3ccc(C(=O)O)c(F)c3)no2)cc1C [Example 87, 2-fluoro-4-{5-[2′-(methoxymethyl)-2-methylbiphenyl-4-yl]-1,2,4-oxadiazol-3-yl}benzoic acid] | 2010 nM |
| CCc1ccccc1-c1ccc(-c2nc(-c3ccc(F)c(CN(C)CCC(=O)O)c3)no2)cc1COC [Example 156, N-(5-{5-[2′-ethyl-2-(methoxymethyl)biphenyl-4-yl]-1,2,4-oxadiazol-3-yl}-2-fluorobenzyl)-N-methyl-beta-alanine, Hydrochloride salt] | 2.5 nM |
| COCc1cc(-c2nc(-c3cccc(COCCO)c3)no2)ccc1-c1ccccc1C [Example 193, 2-[(3-{5-[2-(methoxymethyl)-2′-methylbiphenyl-4-yl]-1,2,4-oxadiazol-3-yl}benzyl)oxy]ethanol] | 1.8 nM |
| Cc1ccccc1-c1ccc(-c2nc(-c3ccc(C(=O)O)c(F)c3)no2)cc1CO [Example 58, 2-fluoro-4-{5-[2-(hydroxymethyl)-2′-methylbiphenyl-4-yl]-1,2,4-oxadiazol-3-yl}benzoic acid] | 2930 nM |
| COCc1cc(-c2nc(-c3cccc(C(=O)NCCCC(=O)O)c3)no2)ccc1-c1ccccc1C [Example 139, 4-[(3-{5-[2-(methoxymethyl)-2′-methylbiphenyl-4-yl]-1,2,4-oxadiazol-3-yl}benzoyl)amino]butanoic acid] | 9.6 nM |
| COCc1cc(-c2nc(-c3ccc(C(=O)OC)c(F)c3)no2)ccc1N1CCCCC1C (stereo not drawn) [Example 113, methyl 2-fluoro-4-{5-[3-(methoxymethyl)-4-(2-methylpiperidin-1-yl)phenyl]-1,2,4-oxadiazol-3-yl}benzoate] | 485 nM |
| O=C(O)COc1ccc(-c2noc(-c3cnc(OCC4CC4)c(Cl)c3)n2)cc1F [Example 52, (4-{5-[5-chloro-6-(cyclopropylmethoxy)pyridin-3-yl]-1,2,4-oxadiazol-3-yl}-2-fluorophenoxy)acetic acid] | 1540 nM |
| Cc1ccccc1-c1ccc(-c2nc(-c3ccc(C(=O)O)c(F)c3)no2)cc1COCC(C)C [Example 60, 2-fluoro-4-{5-[2-(isobutoxymethyl)-2′-methylbiphenyl-4-yl]-1,2,4-oxadiazol-3-yl}benzoic acid] | 3700 nM |
| COCc1cc(-c2nc(-c3ccc(C(=O)NCCCC(=O)OC)c(F)c3)no2)ccc1-c1ccccc1C [Example 126, Methyl 4-[(2-fluoro-4-{5-[2-(methoxymethyl)-2′-methylbiphenyl-4-yl]-1,2,4-oxadiazol-3-yl}benzoyl)amino]butanoate] | 35 nM |
| Cc1cc(-c2nc(-c3ccc(O)c(C(=O)O)c3)no2)ccc1-c1cscc1C [Example 44, 2-hydroxy-5-{5-[3-methyl-4-(4-methyl-3-thienyl)phenyl]-1,2,4-oxadiazol-3-yl}benzoic acid] | 1450 nM |
| COCc1cc(-c2nc(-c3cccc(CNCCO)c3)no2)ccc1-c1ccccc1C [Example 187, 2-[(3-{5-[2-(methoxymethyl)-2′-methylbiphenyl-4-yl]-1,2,4-oxadiazol-3-yl}benzyl)amino]ethanol, Hydrochloride salt] | 2 nM |
| COCc1cc(-c2nc(-c3ccc(C(=O)O)c(F)c3)no2)ccc1OC(C)C [Example 111, 2-fluoro-4-{5-[4-isopropoxy-3-(methoxymethyl)phenyl]-1,2,4-oxadiazol-3-yl}benzoic acid] | 610 nM |
| Cc1cc(-c2nc(-c3ccc(C(=O)O)c(F)c3)no2)ccc1N1CCOCC1 [Example 18, 2-fluoro-4-[5-(3-methyl-4-morpholin-4-ylphenyl)-1,2,4-oxadiazol-3-yl]benzoic acid] | 7000 nM |
| Cc1cc(-c2nc(-c3ccc(C(=O)O)c(F)c3)no2)ccc1-c1ccccc1C(F)(F)F [Example 8, 2-fluoro-4-{5-[2-methyl-2′-(trifluoromethyl)biphenyl-4-yl]-1,2,4-oxadiazol-3-yl}benzoic acid] | 850 nM |
| Cc1cc(-c2nc(-c3ccc(C(=O)O)c(F)c3)no2)ccc1-c1ccccc1 [Example 6, 2-fluoro-4-[5-(2-methylbiphenyl-4-yl)-1,2,4-oxadiazol-3-yl]benzoic acid] | 2920 nM |
| COCc1cc(-c2nc(-c3ccc(C(=O)O)c(F)c3)no2)ccc1-c1cc(F)ccc1OC [Example 89, 2-fluoro-4-{5-[5′-fluoro-2′-methoxy-2-(methoxymethyl)biphenyl-4-yl]-1,2,4-oxadiazol-3-yl}benzoic acid] | 460 nM |
| COCc1cc(-c2nc(-c3cc(C(=O)OC)ccc3OC)no2)ccc1-c1ccccc1C [Example 106, methyl 4-methoxy-3-{5-[2-(methoxymethyl)-2′-methylbiphenyl-4-yl]-1,2,4-oxadiazol-3-yl}benzoate] | 50 nM |
| Cc1ccccc1-c1ccc(-c2nc(-c3ccc(C(=O)O)c(F)c3)no2)cc1OCC(C)C [Example 104, 2-fluoro-4-[5-(2-isobutoxy-2′-methylbiphenyl-4-yl)-1,2,4-oxadiazol-3-yl]benzoic acid] | 800 nM |
| COCC1CCCN1c1ncc(-c2nc(-c3ccc(S(N)(=O)=O)cc3)no2)cc1C (stereo not drawn) [Example 41, 4-(5-{6-[2-(methoxymethyl)pyrrolidin-1-yl]-5-methylpyridin-3-yl}-1,2,4-oxadiazol-3-yl)benzenesulfonamide] | 1090 nM |
| C#CCOc1ncc(-c2nc(-c3ccc(OCC(=O)O)c(F)c3)no2)cc1Cl [Example 51, (4-{5-[5-chloro-6-(prop-2-yn-1-yloxy)pyridin-3-yl]-1,2,4-oxadiazol-3-yl}-2-fluorophenoxy)acetic acid] | 2020 nM |
| COCc1cc(-c2nc(-c3cc(F)c(C(=O)O)cc3OC)no2)ccc1-c1ccccc1C [Example 112, 2-fluoro-5-methoxy-4-{5-[2-(methoxymethyl)-2′-methylbiphenyl-4-yl]-1,2,4-oxadiazol-3-yl}benzoic acid] | 102 nM |
| COCc1cc(-c2nc(-c3ccc(C(=O)NC(C)(C)C(=O)OC)c(F)c3)no2)ccc1-c1ccccc1C [Example 128, Methyl N-(2-fluoro-4-{5-[2-(methoxymethyl)-2′-methylbiphenyl-4-yl]-1,2,4-oxadiazol-3-yl}benzoyl)-2-methylalaninate] | 154 nM |
| COCc1cc(-c2nc(-c3cccc(C(=O)NCCC(=O)O)c3)no2)ccc1-c1ccccc1C [Example 135, N-(3-{5-[2-(methoxymethyl)-2′-methylbiphenyl-4-yl]-1,2,4-oxadiazol-3-yl}benzoyl)-beta-alanine] | 7.8 nM |
| CCc1ccccc1-c1ccc(-c2nc(-c3ccc(C(=O)OC)c(F)c3)no2)cc1COC [Example 80, methyl 4-{5-[2′-ethyl-2-(methoxymethyl)biphenyl-4-yl]-1,2,4-oxadiazol-3-yl}-2-fluorobenzoate] | 274 nM |
